For assay [1] the following is noted: J. Agric. Food Chem. 34 (2), 185-188; cited from earlier work.
A further assay deals with T1, MAO A (Rattus norvegicus, UniProt P21396).
T1 construct: carried out in dilute rat brain homogenate; from tissue; host or cells: rat brain homogenate
T1 sequence (P21396 1-526): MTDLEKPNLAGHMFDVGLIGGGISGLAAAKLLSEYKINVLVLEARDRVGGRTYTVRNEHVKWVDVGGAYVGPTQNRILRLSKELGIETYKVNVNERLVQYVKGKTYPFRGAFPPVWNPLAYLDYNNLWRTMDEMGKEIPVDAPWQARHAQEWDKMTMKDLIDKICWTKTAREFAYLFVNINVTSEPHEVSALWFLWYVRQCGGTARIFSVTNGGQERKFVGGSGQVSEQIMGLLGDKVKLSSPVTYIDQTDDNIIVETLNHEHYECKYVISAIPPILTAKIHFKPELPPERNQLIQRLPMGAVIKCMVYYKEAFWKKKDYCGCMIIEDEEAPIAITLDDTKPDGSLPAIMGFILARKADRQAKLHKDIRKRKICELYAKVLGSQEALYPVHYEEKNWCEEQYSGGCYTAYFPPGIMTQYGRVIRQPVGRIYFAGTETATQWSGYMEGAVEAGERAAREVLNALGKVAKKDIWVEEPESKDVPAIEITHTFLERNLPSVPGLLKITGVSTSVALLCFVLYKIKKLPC
As to the kind of experiment: determination of monoaminooxidase A inhibition in dilute rat brain homogenate. Type of assay: biochemical. Conditions: 14C-phenylethylamine or 14C-tryptamine 0.4 μmol/l, 20 min, 37° C., logit-log regression, read-out: IC50 MAO A (mean inhibitory concentration). On the procedure: (§1) The MAO-inhibiting activity of the novel compounds can be determined using standard methods. […] This mixture was incubated for 20 minutes at 37° C. […] The blank value was determined in similar mixtures with an incubation time of t =0 min.
(§2) From the inhibitory values determined at the various inhibitor concentrations against the controls, the mean inhibitory concentration (IC50) was calculated by linear regression following logit-log transformation.

For a further assay, the target named is T2, MAO B (Rattus norvegicus, UniProt P19643).
T2 construct: carried out in dilute rat brain homogenate; from tissue; host or cells: rat brain homogenate
T2 sequence (P19643 1-520): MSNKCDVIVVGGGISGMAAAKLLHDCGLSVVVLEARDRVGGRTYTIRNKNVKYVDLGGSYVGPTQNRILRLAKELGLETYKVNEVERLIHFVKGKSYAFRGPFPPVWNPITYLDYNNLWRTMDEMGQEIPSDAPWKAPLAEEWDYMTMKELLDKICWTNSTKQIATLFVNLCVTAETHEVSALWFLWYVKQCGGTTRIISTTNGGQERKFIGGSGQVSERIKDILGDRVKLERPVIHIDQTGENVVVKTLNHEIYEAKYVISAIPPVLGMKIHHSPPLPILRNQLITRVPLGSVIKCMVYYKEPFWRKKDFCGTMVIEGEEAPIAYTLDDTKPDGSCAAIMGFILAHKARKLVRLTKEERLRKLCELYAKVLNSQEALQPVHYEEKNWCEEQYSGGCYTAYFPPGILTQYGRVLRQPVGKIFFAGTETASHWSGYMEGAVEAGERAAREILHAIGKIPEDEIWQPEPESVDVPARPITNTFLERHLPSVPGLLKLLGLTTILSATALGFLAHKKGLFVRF
As to the kind of experiment: determination of monoaminooxidase B inhibition in dilute rat brain homogenate. The format is biochemical. Conditions: 20 min; for IC50: 14C-phenylethylamine or 14C-tryptamine 0.4 μmol/l, 37° C., logit-log regression, read-out: IC50 MAO B (mean inhibitory concentration); for MAO B selectivity (IC50 MAO A / IC50 MAO B): selectivity ratio from the two IC50 values. On the procedure:
as §1, §2

With `Cc1cc(=O)oc2cc(OCc3c(F)c(F)c(F)c(F)c3F)ccc12` [7-pentafluorophenylmethoxy-4-methylcoumarin], the fungicidal activity entry in assay [1] was “has fungicidal activity”.

On to `Cc1ccc(C)c(COc2ccc3c(C)c(C)c(=O)oc3c2)c1` [Example 10, 3,4-Dimethyl-7-(2,5-dimethylphenyl)-methoxycoumarin], for which the IC50 at MAO A was above 10000 nM. On MAO B, the IC50 is 3.7 nM and the “MAO B selectivity (IC50 MAO A / IC50 MAO B)” value is above 2700.

With `Cc1c(Cl)c(=O)oc2cc(OCc3ccc(C(C)C)cc3)ccc12` [Example 33, 3-Chloro-4-methyl-7-(4-isopropylphenyl)-methoxycoumarin], at MAO A, the IC50 is above 10000 nM. At MAO B, the IC50 worked out at 4.3 nM and the “MAO B selectivity (IC50 MAO A / IC50 MAO B)” value is above 2400.

Take `Cc1cc2ccc(OCc3ccc(C(C)C)cc3)cc2oc1=O` [Example 28, 3-Methyl-7-(4-isopropylphenyl)-methoxycoumarin]: the IC50 at MAO A is above 10000 nM; at MAO B, 2.8 nM. Besides, the “MAO B selectivity (IC50 MAO A / IC50 MAO B)” value at MAO B is given as above 3600.

Consider `Cc1cc(=O)oc2cc(OCc3ccc(C(C)C)cc3)ccc12` [Example 27, 4-Methyl-7-(4-isopropylphenyl)-methoxycoumarin], for which the IC50 at MAO A is above 10000 nM. Besides, at MAO B, the IC50 is 4.7 nM and the “MAO B selectivity (IC50 MAO A / IC50 MAO B)” value is given as above 2100.

On to `Cc1c(C)c2ccc(OCc3ccc4ccccc4c3)cc2oc1=O` [Example 4, 3,4-Dimethyl-7-(2-naphthyl)-methoxycoumarin], for which, at MAO A, the IC50 was above 10000 nM. Further, at MAO B, the IC50 came out at 11 nM and the “MAO B selectivity (IC50 MAO A / IC50 MAO B)” value was above 900.

For `Cc1c(C)c2ccc(OCCCc3ccccc3)cc2oc1=O` [Example 35, 3,4-Dimethyl-7-(3-phenylpropoxy)-coumarin], the IC50 at MAO A was determined as 1200 nM. On MAO B, the IC50 was determined as 4.2 nM and the “MAO B selectivity (IC50 MAO A / IC50 MAO B)” value stood at 280.

In the case of `CCc1cc2c(C)c(C)c(=O)oc2cc1OCCc1ccccc1` [Example 23, 6-Ethyl-3,4-dimethyl-7-(2-phenyl)-ethoxycoumarin], on MAO A, the IC50 was above 10000 nM. For the same molecule, at MAO B, the IC50 came to 13 nM and the “MAO B selectivity (IC50 MAO A / IC50 MAO B)” value is above 770.

As for `CC(C)c1ccc(COc2ccc3ccc(=O)oc3c2)cc1` [Example 26, 7-(4-Isopropylphenyl)-methoxycoumarin], the IC50 at MAO A is above 10000 nM. For the same molecule, at MAO B, the IC50 is 1.8 nM and the “MAO B selectivity (IC50 MAO A / IC50 MAO B)” value is above 5600.

As for `Cc1c(C)c2cc(Cl)c(OCc3ccc(C(C)C)cc3)cc2oc1=O` [Example 38, 6-Chloro-3,4-dimethyl-7-(4-isopropylphenyl)-methoxycoumarin], the figures for the IC50 at MAO A and at MAO B were above 10000 nM and 31 nM, respectively. Besides, the “MAO B selectivity (IC50 MAO A / IC50 MAO B)” value at MAO B is listed as above 320.

These data come from patent US5100914A, “Arylalkoxycoumarins” (BASF Aktiengesellschaft, priority 1988, dated 1992).
